Experimental findings from ChEMBL document CHEMBL5604065, “ASAP - DENV-3 NS2B-NS3 protease fluorescence dose response” (2024) are described below.

“And” between values parts separate entries of the source, which are not always exact repeats. Equal entries are not always repeated.

As a reminder, the IC50 is the concentration that gives 50% inhibition. High values mean a need for much substance, low ones inhibition by little substance.

This assay addresses T1, NS3 protease (dengue virus type 3, UniProt A0A0B5JFF1).
T1 sequence (A0A0B5JFF1 whole entry): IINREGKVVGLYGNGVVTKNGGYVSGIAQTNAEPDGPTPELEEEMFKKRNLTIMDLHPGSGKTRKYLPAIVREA
The assay is described as follows: Functional biochemical assay to identify treatments for viral infectious disease that targets Dengue virus type 3 NS2B-NS3 protease. Utilizing a direct enzyme activity measurement method, reading the fluorescence intensity is used to characterize the relative potency of inhibitors as IC50. Details: species or system Philippines/H87/1956.
In the case of `CC(C)NC(=O)[C@H](Nc1ccc2c(c1)CNC2)c1cc(Cl)cc2[nH]ncc12`, the IC50 was found to be 26.2 µM. For `O=C(Nc1ccc2c(c1)CNC2)c1cc(Br)cc2[nH]c(-c3ccccc3)nc12`, 1.47 µM corresponded to half-maximal inhibition (IC50). Molecule `NCCc1csc2cc(C(=O)Nc3cc([C@H]4CCOC4)ccn3)ccc12` returned an IC50 greater than 99.5 µM. The figure for `O=C(Nc1ccc2c(c1)CNC2)c1cccc2[nH]c(C(F)(F)F)cc12` is 31.8 µM; for `N#Cc1cccc(-c2nc3c(C(=O)Nc4ccc5c(c4)CNC5)cc(F)cc3[nH]2)c1` it is 2.31 µM. The molecule `C=CC[C@H]1NCc2cc(NC(=O)c3cccc4c3CC(=O)N4)ccc21` showed an IC50 greater than 99.5 µM. The figure for `O=C(Nc1ccc2c(c1)CNC2)c1ccc2[nH]cc(C3CCNCC3)c2c1` is 29.2 µM; for `N#Cc1ccc(-c2nc3c(C(=O)Nc4ccc5c(c4)CNC5)cc(F)cc3[nH]2)cc1` it is 1.7 µM; for `COc1cccc(-c2nc3c(C(=O)Nc4ccc5c(c4)CNC5)cc(F)cc3[nH]2)c1` it is 3.72 µM. `O=C(NCC(F)F)[C@H](Nc1ccc2c(c1)CNC2)c1cc(F)cc2[nH]ccc12`: the IC50 is greater than 99.5 µM. For the molecule `CC(C)c1nnc(-c2nc3c(C(=O)Nc4ccc5c(c4)CNC5)cc(F)cc3[nH]2)s1`, the IC50 was determined as 10.8 µM. `C=CC[C@H]1NCc2cc(NC(=O)c3cc(Cl)cc4[nH]ncc34)ccc21` displayed an IC50 of 68.2 µM. The molecule `NCc1cccc(-c2csc3cc(C(=O)Nc4ccc5c(c4)CNC5)ccc23)c1` registered an IC50 of 29.8 µM. The molecule `O=C(Nc1ccc2c(c1)CNC2)c1cc(F)cc2[nH]c(-c3cccc(F)c3)nc12` displayed an IC50 of 2.73 µM. The molecule `N#Cc1cc2c(cc1NC(=O)c1cc(F)cc3[nH]ncc13)CNC2` gave an IC50 of 5.39 µM. Molecule `O=C(Nc1ccc2c(c1)CNC2)c1cc(Cl)cc2cc[nH]c12` gave an IC50 of 87.9 µM. The figure for `C=CC[C@H]1NCc2cc(NC(=O)c3cc(F)cc4[nH]ncc34)ccc21` is 32.3 µM; for `Cc1cccc(-c2nc3c(C(=O)Nc4ccc5c(c4)CNC5)cc(F)cc3[nH]2)c1` it is 6.16 µM; for `Cc1ccccc1-c1nc2c(C(=O)Nc3ccc4c(c3)CNC4)cc(F)cc2[nH]1` it is 2.2 µM.

As to `O=C(Nc1cc(Br)c2c(c1)CNC2)c1cc(F)cc2[nH]ncc12`, the midpoint of inhibition, the IC50, lay at 15 µM. `O=C1Cc2c(cc(F)cc2C(=O)Nc2ccc3c(c2)CNC3)N1` gave an IC50 of 8.59 µM. For the molecule `O=C(Nc1ccc2c(c1)CNC2)c1ccc2c(C3=CCNCC3)csc2c1`, half-maximal inhibition (IC50) was put at 54.4 µM. In turn, `C=CC[C@H]1NCc2cc(N[C@H](C(=O)NC(C)C)c3cc(Cl)cc4[nH]ncc34)ccc21` yielded an IC50 of 55.1 µM. The figure for `O=C(Nc1ccc2c(c1)CNC2)c1cc(F)cc2[nH]c(-c3ccccc3F)nc12` is 3.44 µM; for `NCc1ccc(-c2csc3cc(C(=O)Nc4ccc5c(c4)CNC5)ccc23)cc1` it is 31.6 µM; for `NCc1csc2cc(C(=O)Nc3ccc4c(c3)CNC4)ccc12` it is 9.07 µM. The molecule `Cn1c(=O)[nH]c2c(C(=O)Nc3ccc4c(c3)CNC4)cc(Br)cc21` displayed an IC50 greater than 99.5 µM. With `O=C(Nc1ccc2c(c1)CNC2)c1cc(F)cc2c1CCC2`, the IC50 is greater than 99.5 µM. `O=C(Nc1ccc2c(c1)CNC2)c1cccc2c(C3CNC3)n[nH]c12`: inhibition was half-maximal at 9.27 µM (IC50). For `O=C(Nc1ccc2c(c1)CNC2)c1cc(Cl)cc(C(F)(F)F)n1` the value was 10.4 µM; for `O=C(Nc1ccc2c(c1)CNC2)c1cc(F)cc2[nH]c(-c3ccc(F)cc3)nc12`, 2.96 µM. As for `O=C(Nc1ccc2c(c1)CNC2)c1cccc2nc(O)ccc12`, the IC50 is greater than 99.5 µM. `COc1cc(-c2cc(NC(=O)c3cc(F)cc4[nH]ncc34)cc3c2CNC3)ccn1` came in with an IC50 of 12.9 µM. For the molecule `CC(C)(c1nc2c(C(=O)Nc3ccc4c(c3)CNC4)cc(F)cc2[nH]1)S(C)(=O)=O`, the IC50 was found to be 13.6 µM. The figure for `O=C1Cc2cc(C(=O)Nc3ccc4c(c3)CNC4)ccc2N1` is 7.13 µM and 5.44 µM.

In turn, `NCCc1csc2cc(C(=O)Nc3ccc4c(c3)CNC4)ccc12` showed an IC50 greater than 99.5 µM. `O=C(Nc1ccc2c(c1)CNC2)c1cc(F)cc2[nH]c(-c3ccccc3)nc12` registered an IC50 of 3.57 µM. Molecule `O=C(Nc1ccc2c(c1)CNC2)c1cc(Cl)cc2nn(-c3ccccc3)nc12` came in with an IC50 of 4.73 µM. For `O=C(Nc1ccc2c(c1)CNC2)c1cccc2cn[nH]c12` the value was 37.3 µM. `O=C(Nc1cc2c(cc1Br)CNC2)c1cc(F)cc2[nH]ncc12` gave an IC50 of 21.8 µM. In turn, `O=C(Nc1ccc2c(c1)CNC2)c1ccc2[nH]ccc2c1` returned an IC50 greater than 99.5 µM. For the molecule `O=C(Nc1cc2c(c(C3=CCS(=O)(=O)CC3)c1)CNC2)c1cc(F)cc2[nH]ncc12`, the IC50 was 12.8 µM. The molecule `O=C(Nc1cc2c(c(C3=CCOCC3)c1)CNC2)c1cc(F)cc2[nH]ncc12` displayed an IC50 of 8.47 µM.
